Like-named read-outs stand apart in the source and are kept apart here.

Our source for the pest or weed control values is patent US9204653B2, “5-fluoro pyrimidine derivatives” (DOW AGROSCIENCES LLC, priority 2008, dated 2015).

The subject of this experiment is Mycosphaerella graminicola; Anamorph: Septoria tritici; Bayer Code SEPTTR. Briefly: Leaf blotch of wheat, foliar fungicide treatment, one day protectant (1DP) or three day curative (3DC). It is filed as in vivo, Septoria tritici on wheat plants (variety Yuma). The settings on record: Zymoseptoria tritici, percent control rating; for pest or weed control at 100 ppm: read-out: SEPTTR 3DC 100 ppm.

Setting [1] is: 24 h, one day protectant (1DP), 25 ppm (first 1DP column), read-out: SETTTR 1DP 25 ppm.
Where [2] appears, read: 24 h, one day protectant (1DP), 25 ppm as printed (second 1DP column), read-out: SETTTR 1DP 25 ppm.
Setting [3] is: 72 h, three day curative (3DC), 25 ppm, read-out: SEPTTR 3DC 25 ppm.

As for `Cc1ccc(COc2ncc(F)c(/N=N/c3ccccc3)n2)cc1` [Compound 992], the pest or weed control at 25 ppm under setting [1] lay in the range of 0 to 25%, the pest or weed control at 25 ppm under setting [2] lay within 0 to 25% and the pest or weed control at 25 ppm under setting [3] was in the range of 0 to 25%. For the same compound, the pest or weed control at 100 ppm (72 h, three day curative (3DC)) lay within 26 to 50%.
Take `Fc1cnc(OCc2ccccc2)nc1/N=N/c1ccccn1` [Compound 993]: the pest or weed control at 25 ppm lay in the range of 0 to 25% under setting [1], 26 to 50% under setting [2] and 0 to 25% under setting [3]. For the same compound, the pest or weed control at 100 ppm (72 h, three day curative (3DC)) was in the range of 51 to 75%.
In the case of `Cc1ccc(COc2ncc(F)c(NS(=O)(=O)c3ccccc3)n2)cc1` [Compound 994], the pest or weed control at 25 ppm reads like this: under setting [1], 0 to 25%; under setting [2], 26 to 50%; under setting [3], 0 to 25%. For the same compound, the pest or weed control at 100 ppm (72 h, three day curative (3DC)) fell in the range of 0 to 25%.
Regarding `CCc1ccccc1NNc1nc(OCc2ccc(C)cc2)ncc1F` [Compound 995], the pest or weed control at 25 ppm runs as follows: under setting [1], 0 to 25%; under setting [2], 26 to 50%; under setting [3], 0 to 25%. Besides, the pest or weed control at 100 ppm (72 h, three day curative (3DC)) lay in the range of 0 to 25%.
For `COc1ccccc1NNc1nc(OCc2ccc(C)cc2)ncc1F` [Compound 996], the pest or weed control at 25 ppm by setting is: under setting [1], 26 to 50%; under setting [2], 51 to 75%; under setting [3], 26 to 50%. The pest or weed control at 100 ppm (72 h, three day curative (3DC)) lay within 51 to 75%.
Regarding `CC(C)=NOc1ncc(F)c(N)n1` [Compound 997], the pest or weed control at 25 ppm under setting [1] was 76 to 100%, the pest or weed control at 25 ppm under setting [2] lay in the range of 76 to 100% and the pest or weed control at 25 ppm under setting [3] is 76 to 100%. In addition, under “72 h, three day curative (3DC)”, the pest or weed control at 100 ppm was 76 to 100%.
As for `Nc1nc(ON=C(C2CC2)C2CC2)ncc1F` [Compound 998], the pest or weed control at 25 ppm under setting [1] is 76 to 100%, the pest or weed control at 25 ppm under setting [2] fell in the range of 76 to 100% and the pest or weed control at 25 ppm under setting [3] was 76 to 100%. The pest or weed control at 100 ppm (72 h, three day curative (3DC)) is 76 to 100%.
With `COc1ccc(/C(C)=N/Oc2ncc(F)c(N)n2)cc1` [Compound 999], the pest or weed control at 25 ppm under setting [1] lay in the range of 76 to 100%, the pest or weed control at 25 ppm under setting [2] lay within 76 to 100% and the pest or weed control at 25 ppm under setting [3] is 76 to 100%. In addition, the pest or weed control at 100 ppm (72 h, three day curative (3DC)) is 76 to 100%.
On to `C/C(=N\Oc1ncc(F)c(N)n1)c1ccc(Cl)cc1` [Compound 1000], for which the pest or weed control at 25 ppm lay in the range of 76 to 100% under setting [1], 76 to 100% under setting [2] and 76 to 100% under setting [3]. Further, the pest or weed control at 100 ppm (72 h, three day curative (3DC)) lay within 76 to 100%.
As for `C/C(=N\Oc1ncc(F)c(N)n1)c1cnc(OCC(F)(F)F)nc1` [Compound 1001], the pest or weed control at 25 ppm lay within 26 to 50% under setting [1], 76 to 100% under setting [2] and 26 to 50% under setting [3]. Moreover, under “72 h, three day curative (3DC)”, the pest or weed control at 100 ppm was 76 to 100%.
With `C/C(=N\Oc1ncc(F)c(N)n1)c1ccc(S(=O)(=O)N(C)C)cc1` [Compound 1002], the pest or weed control at 25 ppm under setting [1] was in the range of 51 to 75%, the pest or weed control at 25 ppm under setting [2] fell in the range of 76 to 100% and the pest or weed control at 25 ppm under setting [3] is 26 to 50%. In addition, the pest or weed control at 100 ppm (72 h, three day curative (3DC)) was in the range of 51 to 75%.
As to `CC(C)S(=O)(=O)Nc1nc(OCc2ccc(F)cc2)ncc1F` [Compound 1004], the pest or weed control at 25 ppm under setting [1] fell in the range of 0 to 25%, the pest or weed control at 25 ppm under setting [2] was 0 to 25% and the pest or weed control at 25 ppm under setting [3] lay within 0 to 25%. Also, for the setting “72 h, three day curative (3DC)”, the pest or weed control at 100 ppm is 26 to 50%.
Regarding `O=S(=O)(Nc1nc(OCc2ccc(F)cc2)ncc1F)c1ccccc1` [Compound 1005], the pest or weed control at 25 ppm is, setting by setting: under setting [1], 0 to 25%; under setting [2], 0 to 25%; under setting [3], 0 to 25%. The pest or weed control at 100 ppm (72 h, three day curative (3DC)) is 0 to 25%.
`CCS(=O)(=O)Nc1nc(OCc2ccc(C)cc2)ncc1F` [Compound 1006]: the pest or weed control at 25 ppm under setting [1] was 0 to 25%, the pest or weed control at 25 ppm under setting [2] lay in the range of 0 to 25% and the pest or weed control at 25 ppm under setting [3] lay in the range of 0 to 25%. Besides, the pest or weed control at 100 ppm (72 h, three day curative (3DC)) was in the range of 0 to 25%.
In the case of `Cc1ccc(COc2ncc(F)c(NS(=O)(=O)C3CC3)n2)cc1` [Compound 1007], the pest or weed control at 25 ppm by setting is: under setting [1], 0 to 25%; under setting [2], 0 to 25%; under setting [3], 0 to 25%. Besides, the pest or weed control at 100 ppm (72 h, three day curative (3DC)) lay within 0 to 25%.
For `CS(=O)(=O)Nc1nc(OCc2ccccc2)ncc1F` [Compound 1008], the pest or weed control at 25 ppm was in the range of 0 to 25% under setting [1], 0 to 25% under setting [2] and 0 to 25% under setting [3]. Also, for the setting “72 h, three day curative (3DC)”, the pest or weed control at 100 ppm was 0 to 25%.
As for `CC(C)S(=O)(=O)Nc1nc(OCc2ccccc2)ncc1F` [Compound 1009], the pest or weed control at 25 ppm lay in the range of 0 to 25% under setting [1], 0 to 25% under setting [2] and 0 to 25% under setting [3]. The pest or weed control at 100 ppm (72 h, three day curative (3DC)) is 0 to 25%.
Take `O=S(=O)(Nc1nc(OCc2ccccc2)ncc1F)c1ccccc1` [Compound 1010]: the pest or weed control at 25 ppm under setting [1] is 0 to 25%, the pest or weed control at 25 ppm under setting [2] fell in the range of 0 to 25% and the pest or weed control at 25 ppm under setting [3] fell in the range of 0 to 25%. For the same compound, for the setting “72 h, three day curative (3DC)”, the pest or weed control at 100 ppm lay in the range of 0 to 25%.
For the compound `COc1cccc(COc2ncc(F)c(NS(C)(=O)=O)n2)c1` [Compound 1011], the pest or weed control at 25 ppm runs as follows: under setting [1], 0 to 25%; under setting [2], 0 to 25%; under setting [3], 0 to 25%. Also, the pest or weed control at 100 ppm (72 h, three day curative (3DC)) fell in the range of 0 to 25%.
`COc1cccc(COc2ncc(F)c(NS(=O)(=O)C(C)C)n2)c1` [Compound 1012]: the pest or weed control at 25 ppm by setting is: under setting [1], 0 to 25%; under setting [2], 0 to 25%; under setting [3], 0 to 25%. Further, the pest or weed control at 100 ppm (72 h, three day curative (3DC)) fell in the range of 0 to 25%.
For `COc1cccc(COc2ncc(F)c(NS(=O)(=O)c3ccccc3)n2)c1` [Compound 1013], the pest or weed control at 25 ppm runs as follows: under setting [1], 0 to 25%; under setting [2], 0 to 25%; under setting [3], 0 to 25%. Further, under “72 h, three day curative (3DC)”, the pest or weed control at 100 ppm was 0 to 25%.
As to `Fc1ccc(COc2ncc(F)c(/N=N/c3ccccc3Cl)n2)cc1` [Compound 1014], the pest or weed control at 25 ppm was 0 to 25% under setting [1], 0 to 25% under setting [2] and 0 to 25% under setting [3]. The pest or weed control at 100 ppm (72 h, three day curative (3DC)) lay within 76 to 100%.
As for `COc1nn(C)c(C(F)(F)F)c1S(=O)(=O)Nc1nc(OCc2ccc(C)cc2)ncc1F` [Compound 1015], the pest or weed control at 25 ppm under setting [1] is 0 to 25%, the pest or weed control at 25 ppm under setting [2] lay within 0 to 25% and the pest or weed control at 25 ppm under setting [3] is 26 to 50%. Further, the pest or weed control at 100 ppm (72 h, three day curative (3DC)) lay within 76 to 100%.
Take `COc1ccnc(Cl)c1S(=O)(=O)Nc1nc(OCc2ccc(C)cc2)ncc1F` [Compound 1016]: the pest or weed control at 25 ppm runs as follows: under setting [1], 0 to 25%; under setting [2], 0 to 25%; under setting [3], 51 to 75%. The pest or weed control at 100 ppm (72 h, three day curative (3DC)) is 51 to 75%.
Consider `COc1ccc(/C(C)=N/Nc2nc(OC)ncc2F)cc1` [Compound 1017], for which the pest or weed control at 25 ppm lay in the range of 0 to 25% under setting [1], 26 to 50% under setting [2] and 0 to 25% under setting [3]. The pest or weed control at 100 ppm (72 h, three day curative (3DC)) is 51 to 75%.
In the case of `CCC(C)/C(C)=N/Nc1nc(OC)ncc1F` (centres unmarked) [Compound 1018], the pest or weed control at 25 ppm runs as follows: under setting [1], 0 to 25%; under setting [2], 0 to 25%; under setting [3], 0 to 25%. Further, the pest or weed control at 100 ppm (72 h, three day curative (3DC)) is 0 to 25%.
